Measurements as given in PubChem BioAssay (NCI).
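Where inhibition never reached the appropriate level, the endpoint shown equals the highest concentration tested. Otherwise, values were interpolated linearly from a five-concentration, 48-hour dose response in 96-well plates. TGI is the concentration that stops growth completely.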

Legend:
Assay in all cases: NCI anticancer screen, dose series, 48 h
[1] = test system: UACC-62 melanoma
[2] = test system: CAKI-1 renal
[3] = test system: OVCAR-4 ovarian
[4] = test system: DU-145 prostate
[5] = test system: TK-10 renal
[6] = test system: NCI-H522 lung
[7] = test system: NCI/ADR-RES ovarian
[8] = test system: SK-MEL-5 melanoma
[9] = test system: IGROV1 ovarian
[10] = test system: K-562 leukemia
[11] = test system: SF-295 CNS
[12] = test system: A549 NSCLC
[13] = test system: HOP-62 NSCLC
[14] = test system: HL-60(TB) leukemia
[15] = test system: A498 renal
[16] = test system: OVCAR-8 ovarian
[17] = test system: EKVX NSCLC
[18] = test system: T-47D breast
[19] = test system: PC-3 prostate
[20] = test system: NCI-H460 lung
[21] = test system: SNB-75 CNS
[22] = test system: HCT-15 colon
[23] = test system: MALME-3M melanoma
[24] = test system: RXF 393 renal
[25] = test system: SNB-19 CNS
[26] = test system: MDA-N
[27] = test system: SK-MEL-2 melanoma
[28] = test system: HCT-116 colon
[29] = test system: NCI-H23 lung
[30] = test system: U251 CNS
[31] = test system: M14 melanoma
[32] = test system: BT-549 breast
[33] = test system: SK-OV-3 ovarian
[34] = test system: CCRF-CEM leukemia
[35] = test system: SF-268 CNS
[36] = test system: SK-MEL-28 melanoma
[37] = test system: UO-31 renal
[38] = test system: UACC-257 melanoma
[39] = test system: MCF7 breast
[40] = test system: MOLT-4 leukemia
[41] = test system: HCC-2998 colon
[42] = test system: RPMI-8226 leukemia
[43] = test system: SW-620 colon
[44] = test system: OVCAR-3 ovarian
[45] = test system: HOP-92 NSCLC
[46] = test system: SN12C renal
[47] = test system: 786-0 renal
[48] = test system: MDA-MB-435
[49] = test system: HS 578T breast
[50] = test system: KM12 colon
[51] = test system: COLO 205 colon
[52] = test system: ACHN renal
[53] = test system: HT29 colon
[54] = test system: MDA-MB-231 breast
[55] = test system: SR leukemia
[56] = test system: SF-539 CNS
[57] = test system: OVCAR-5 ovarian
[58] = test system: NCI-H226 lung
[59] = test system: LOX IMVI melanoma

## Cc1ccc(C(=O)CCl)o1
[1]
  TGI: > 10 µM
[2]
  TGI: > 7.23 µM
[3]
  TGI: > 10 µM
[4]
  TGI: > 10 µM
[5]
  TGI: > 10 µM
[6]
  TGI: > 5.46 µM
[7]
  TGI: > 10 µM
[8]
  TGI: > 10 µM
[9]
  TGI: > 10 µM
[10]
  TGI: > 10 µM
[11]
  TGI: > 10 µM
[12]
  TGI: > 10 µM
[13]
  TGI: > 10 µM
[14]
  TGI: 4.22 µM
[15]
  TGI: > 10 µM
[16]
  TGI: > 6.61 µM
[17]
  TGI: > 10 µM
[18]
  TGI: > 7.79 µM
[19]
  TGI: > 10 µM
[20]
  TGI: > 10 µM
[21]
  TGI: > 10 µM
[22]
  TGI: > 10 µM
[23]
  TGI: > 8310 nM
[24]
  TGI: > 10 µM
[25]
  TGI: > 10 µM
[26]
  TGI: > 10 µM
[27]
  TGI: > 10 µM
[28]
  TGI: 6.62 µM
[29]
  TGI: > 10 µM
[30]
  TGI: > 10 µM
[31]
  TGI: > 10 µM
[32]
  TGI: > 10 µM
[33]
  TGI: > 10 µM
[34]
  TGI: > 7.83 µM
[35]
  TGI: > 10 µM
[36]
  TGI: > 10 µM
[37]
  TGI: > 6.21 µM
[38]
  TGI: > 10 µM
[39]
  TGI: > 10 µM
[40]
  TGI: 5.68 µM
[41]
  TGI: > 10 µM
[42]
  TGI: 5.42 µM
[43]
  TGI: 5 µM
[44]
  TGI: > 10 µM
[45]
  TGI: > 10 µM
[46]
  TGI: > 10 µM
[47]
  TGI: 9.71 µM
[48]
  TGI: > 10 µM
[49]
  TGI: > 10 µM
[50]
  TGI: > 10 µM
[51]
  TGI: > 8.18 µM
[52]
  TGI: > 10 µM
[53]
  TGI: > 10 µM
[54]
  TGI: > 10 µM
[55]
  TGI: > 10 µM
[56]
  TGI: > 10 µM
[57]
  TGI: > 9.57 µM
[58]
  TGI: > 10 µM
[59]
  TGI: 8.76 µM

## C=C(C)C(=O)OC1C[C@H](COC(C)=O)C2CC=C(C)C2C2OC(=O)C(=C)[C@H]12 (stereo partly drawn)
[1]
  TGI: 16.7 µM
[2]
  TGI: 7 µM
[3]
  TGI: 5.57 µM
[4]
  TGI: 16.5 µM
[5]
  TGI: 18.1 µM
[6]
  TGI: 3.06 µM
[7]
  TGI: 6.23 µM
[8]
  TGI: 20.3 µM
[9]
  TGI: 25.5 µM
[10]
  TGI: 5.56 µM
[11]
  TGI: 33.8 µM
[12]
  TGI: 34.2 µM
[13]
  TGI: 27.7 µM
[14]
  TGI: 2.83 µM
[15]
  TGI: 27.8 µM
[16]
  TGI: 13.3 µM
[17]
  TGI: 23.4 µM
[18]
  TGI: 20.8 µM
[19]
  TGI: 15.1 µM
[20]
  TGI: 34.4 µM
[21]
  TGI: 24.2 µM
[22]
  TGI: 5.17 µM
[23]
  TGI: 2550 nM
[24]
  TGI: 14.1 µM
[25]
  TGI: 31.8 µM
[26]
  TGI: 10.3 µM
[27]
  TGI: 15.9 µM
[28]
  TGI: 3.3 µM
[29]
  TGI: 14.2 µM
[30]
  TGI: 22.1 µM
[31]
  TGI: 4.23 µM
[32]
  TGI: 14.4 µM
[33]
  TGI: 31 µM
[34]
  TGI: 5.03 µM
[35]
  TGI: 7.21 µM
[36]
  TGI: 7.08 µM
[37]
  TGI: 4.91 µM
[38]
  TGI: 13.2 µM
[39]
  TGI: 14.7 µM
[40]
  TGI: 5.24 µM
[41]
  TGI: 29.2 µM
[42]
  TGI: 2.61 µM
[43]
  TGI: 6.53 µM
[44]
  TGI: 5.3 µM
[45]
  TGI: 5.9 µM
[46]
  TGI: 13.1 µM
[47]
  TGI: 7.26 µM
[48]
  TGI: 10.9 µM
[49]
  TGI: 14 µM
[50]
  TGI: 24.2 µM
[51]
  TGI: 6.17 µM
[52]
  TGI: 11.8 µM
[53]
  TGI: 18 µM
[54]
  TGI: 13.5 µM
[55]
  TGI: 5.07 µM
[56]
  TGI: 10.1 µM
[57]
  TGI: 25.5 µM
[58]
  TGI: 31.8 µM
[59]
  TGI: 4.86 µM
